Measurements taken from patent US10906904B2, “ADO-resistant cysteamine analogs and uses thereof” (HORIZON ORPHAN LLC, priority 2015, dated 2021).
Like-named read-outs stand apart in the source and are kept apart here.

Assays:
[1] = Cystine reactivity assay; details: 30° C., percentage of 3 mM cysteamine
Procedure: Cystine reactivity was assessed by incubating 3 mM test compound with 100 nM BODIPY® FL L-Cystine (Life Tech.) at 30° C., pH 7.4 in phosphate buffer. […] Compound cystine reactivity was expressed as a percentage of that of 3 mM cysteamine.
Under resting conditions, the inherent fluorescence of BODIPY® FL L-cystine was very low due to the spatial proximity of the two BODIPY molecules causing quenching. Under chemical reaction (disruption of the S—S bond), the spatial distance was increased, the quenching lost, and measured fluorescence increased. Time (minutes) vs. fluorescence (relative fluorescence units—RFU) was plotted and linear regression analysis was performed to generate a slope value corresponding to the reaction rate in RFU/min and an R2 value.

[2] = test system: cystinotic human fibroblasts; experiment: Cystine depletion assay; format: cell-based; details: for Emax: Homo sapiens, Fibroblast, 1 h, relative to cystine depletion by cysteamine (100%) at a similar concentration; for cystine depletion levels (in words): compared to cysteamine; for Cystine depletion: compound at 50 μM or 100 μM, Tables 1-3
Procedure: The ability of test compounds to deplete cystine from cystinotic human fibroblasts (Coriell) was determined by incubating compounds with cells for 60 min at 37° C., 95% (v/v) air/5% (v/v) CO2 in Minimal Essential Media Eagle. Treated cell samples were subsequently harvested, then homogenized to ensure plasma and lysosomal membrane disruption. Protein was removed by acid precipitation and cystine in the supernatant measured using LC-MS/MS and HILIC chromatography. Protein levels were determined and cystine levels reported as nM per mg/ml protein. Cystine levels after test compound treatment were expressed as a percentage of that of untreated control cells.
Compounds were assayed at a concentration of 50 μM or 100 μM according to the general methods described above.
Cystine depletion levels for the compounds are expressed in Table 4 as a percent relative to the cystine depletion achieved by cysteamine (c.f. cysteamine 100%) at a similar concentration.
Cystine depletion levels for each of the compounds in Table 5 are expressed as a percent relative to the cystine depletion achieved by cysteamine (c.f. cysteamine 100%) at a similar concentration.

[3] = test system: St-HdhQ^111/111 cells; experiment: Glutamate-induced neuronal excitotoxicity assay; format: cell-based; details: STHdhQ111, 6 mM L-glutamate 24 hours, % of effect of 100 μM cysteamine; for viability at 10 µM: read-out: HdhQ^111/111 cell % survival (mean ± STD) Test Conc. 10 μM; for viability at 100 µM: read-out: HdhQ^111/111 cell % survival (mean ± STD) Test Conc. 100 μM
Procedure: The ability of test compounds to inhibit glutamate-induced excitotoxicity (neuroprotection) in St-HdhQ^111/111 cells was determined by incubating compounds with cells for 60 min at 33° C., 95% (v:v) air/5% (v:v) CO2 in Dulbecco's Modified Eagle Media. Following this, excitotoxicity was induced by the addition of 6 mM L-glutamate for 24 hours. Cell viability was assessed by measuring ATP levels using a luminescent-based CellTitre Glo assay (Promega). Compound neuroprotection (% cell survival) was expressed as a % of the effect recorded with 100 μM cysteamine (denoted as 100% cell survival).

[4] = target: T1, human recombinant ADO (Homo sapiens, UniProt Q96SZ5); format: in vitro ADME; details: for ADO Metabolism Assay (%) Mean Value: human, 15 mM
T1 sequence (Q96SZ5 1-270): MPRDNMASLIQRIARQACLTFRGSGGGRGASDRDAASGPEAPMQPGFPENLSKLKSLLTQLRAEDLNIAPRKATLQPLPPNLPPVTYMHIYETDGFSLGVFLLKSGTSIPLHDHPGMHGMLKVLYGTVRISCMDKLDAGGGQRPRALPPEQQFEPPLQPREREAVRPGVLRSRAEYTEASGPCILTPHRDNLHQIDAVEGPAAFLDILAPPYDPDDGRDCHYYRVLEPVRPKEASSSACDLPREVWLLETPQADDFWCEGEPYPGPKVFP
Procedure: The rate of ADO metabolism was determined by incubating 15 mM test compound with 60 μg/ml human recombinant ADO and 20 nM MitoXpress® O2-sensitive fluorescent probe (Luxcel) at 37° C. in assay buffer/salt in a sealed assay chamber. The initial rate of fluorescence (excitation λ380 nm and emission λ650 nm) increase was used to measure ADO-dependent oxygen depletion activity. The ability of ADO to metabolize compounds and concomitantly consume oxygen was expressed relative to that of 15 mM cysteamine.

[5] = Table 4, read-out: Cystine Depletion (%)
[6] = Table 5, read-out: Cystine Depletion (%) Mean Value

For `N[C@H]1CCCC[C@@H]1S` [Compound 42693], the “Cystine Reactivity Assay (30° C.) (%) Mean Value” ([1]; Table 4) was greater than 90%, the Emax [2, 5] was 110% and the viability at 10 µM [3] was 80 ± 10%. For the same compound, the viability at 100 µM [3] was 77 ± 9%.

In the case of `FC1(F)CN[C@@H](CS)C1` [Compound 149607], the “Cystine Reactivity Assay (30° C.) (%) Mean Value” ([1]; Table 5) is reported as greater than 90%, the Emax [2, 6] is reported as 17% and the viability at 10 µM [3] is reported as 32 ± 9%. It also gave a viability at 100 µM [3] of 98 ± 12%.

Work on `O=c1[nH][se]c2ccccc12` [Compound 145565] yielded an Emax [2, 6] of 31%.

With `NCCCNCCS` [Compound 145564] the “Cystine Reactivity Assay (30° C.) (%) Mean Value” ([1]; Table 5) was greater than 90%, the “ADO Metabolism Assay (%) Mean Value” [4] was 25-75% and the Emax [2, 6] was 36%.

In the case of `F[C@@H]1CNCC[C@H]1S`, the viability at 10 µM [3] is reported as 3 ± 7% and the viability at 100 µM [3] is reported as 86 ± 10%.

With `NC1CCCC(S)C1` (centres unmarked) [Compound 145693] the “Cystine Reactivity Assay (30° C.) (%) Mean Value” ([1]; Table 5) was 50-90%, the “ADO Metabolism Assay (%) Mean Value” [4] was less than 25% and the Emax [2, 6] was 81%.

With `Cn1cc[nH]c1=S` [Compound 1176] the “Cystine Reactivity Assay (30° C.) (%) Mean Value” ([1]; Table 5) was less than 50%, the “ADO Metabolism Assay (%) Mean Value” [4] was less than 25% and the Emax [2, 6] was 10%.

For `SCc1ccccn1` [Compound 42213], the “Cystine Reactivity Assay (30° C.) (%) Mean Value” ([1]; Table 4) was greater than 90%, the “ADO Metabolism Assay (%) Mean Value” [4] was greater than 75% and the Emax [2, 5] was 0%.

In the case of `N[C@H]1CC[C@@H](S)CC1` [Compound 42491], the “Cystine Reactivity Assay (30° C.) (%) Mean Value” ([1]; Table 4) is reported as less than 50% and the “ADO Metabolism Assay (%) Mean Value” [4] is reported as less than 25%.

In the case of `CC(CS)Cc1ccccc1` (centres unmarked) [Compound 2403], the “Cystine Reactivity Assay (30° C.) (%) Mean Value” ([1]; Table 5) is reported as less than 50%, the “ADO Metabolism Assay (%) Mean Value” [4] is reported as less than 25% and the Emax [2, 6] is reported as 19%.

`CN1CC[C@@H](S)C1` showed a viability at 10 µM [3] of 13 ± 13% and a viability at 100 µM [3] of 93 ± 9%.

With `OCC1(S)CCCNC1` (centres unmarked) [Compound 150730] the “Cystine Reactivity Assay (30° C.) (%) Mean Value” ([1]; Table 5) was greater than 90%, the “ADO Metabolism Assay (%) Mean Value” [4] was less than 25% and the Emax [2, 6] was 14%.

With `NC1(CS)CC1` [Compound 41448] the “ADO Metabolism Assay (%) Mean Value” [4] was 25-75% and the Emax [2, 5] was 55%.

In the case of `SC[C@@H]1CCCCN1` [Compound 145592], the “Cystine Reactivity Assay (30° C.) (%) Mean Value” ([1]; Table 5) is reported as greater than 90%, the Emax [2, 6] is reported as 156% and the viability at 10 µM [3] is reported as 17 ± 10%. The viability at 100 µM [3] was 88 ± 8%.

Work on `CN1CCCC(SSC2CCCN(C)C2)C1` (centres unmarked) [Compound 42152] yielded an Emax [2, 5] of 126%.

Compound `CC(=O)SC1CCNCC1` [Compound 145692] has an Emax [2, 6] of 75%.

For `CC(C)(N)CS` [Compound 3b], the “cystine depletion levels (in words)” value [2] was “similar” and the Cystine depletion [2] was 97%.

For `C[C@]1(S)CCCNC1` [Compound 151181], the “Cystine Reactivity Assay (30° C.) (%) Mean Value” ([1]; Table 5) was 50-90%, the Emax [2, 6] was 69% and the viability at 10 µM [3] was 3 ± 8%. The viability at 100 µM [3] was 90 ± 9%.

With `C[C@H]1CCNC[C@@H]1S` [Compound 42612] the Emax [2, 5] was 98%.

In the case of `N[C@H]1CC[C@H](S)CC1` [Compound 42492], the “Cystine Reactivity Assay (30° C.) (%) Mean Value” ([1]; Table 4) is reported as less than 50%.

Work on `CC1(SSC2(C)CCNCC2)CCNCC1` [Compound 151272] yielded an Emax [2, 6] of 11%.

With `SC1CNC1` [Compound 2a] the “metabolism by ADO compared to cysteamine (in words)” value [4] was “significantly reduced metabolism by ADO compared to cysteamine”, the “cystine depletion levels (in words)” value [2] was “slightly decreased” and the Cystine depletion [2] was 82%.

For `SCC1CCN1` (centres unmarked) [Compound 42212], the “Cystine Reactivity Assay (30° C.) (%) Mean Value” ([1]; Table 4) was less than 50%.

With `CC1(C)CNCCC1S` (centres unmarked) [Compound 42609] the Emax [2, 5] was 17%.

`CSC1(C)CCNCC1` [Compound 145691] gave an Emax [2, 6] of 0%.

`CN1C2CCC1CC(SSC1CC3CCC(C1)N3C)C2` (centres unmarked) [Compound 42344] gave an Emax [2, 5] of 38%.

In the case of `CC1(S)CC(N)C1` (centres unmarked) [Compound 152071], the Emax [2, 6] is reported as 70%.

For `FC1(F)CN[C@H](CS)C1` [Compound 149611], the “Cystine Reactivity Assay (30° C.) (%) Mean Value” ([1]; Table 5) was greater than 90%, the Emax [2, 6] was 27% and the viability at 10 µM [3] was 35 ± 13%. The viability at 100 µM [3] was 102 ± 13%.
